“And” between values parts separate entries of the source, which are not always exact repeats. Identical values can stand only once.
Each molecule was assayed on BT-474 (assay: normalised response (% of control), CellTiter-Glo; higher = more viable cells (100 = DMSO, 0 = benzethonium chloride kill control)). Settings: incubation time: 72 h.
Experimental: (§1)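 DSRT, 72 h incubation, CellTox Green / CellTiter-Glo readout. Signal is normalised to DMSO and benzethonium chloride controls. Value is the normalised response at the highest dose.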
`CC(C)n1cnc2c(NCCc3ccc(O)cc3)nc(-c3csc4ccccc34)nc21` [StemRegenin 1] (10000 nM) gave a normalised response of 71.4%.

These molecules were tested on CAL-51 in the same assay as above. Settings: incubation time: 72 h.
Experimental: as §1
`CC1(COc2ccc3c(c2)ncn3-c2ccc3cccc(N4CCC(N)CC4)c3n2)COC1` [Crenolanib] (10000 nM) gave a normalised response of 7.22%.
Work on `CC[C@H](CO)Nc1nc(NCc2ccccc2)c2ncn(C(C)C)c2n1` [Seliciclib] (10000 nM) yielded a normalised response of 78.7%.
Molecule `O=[N+]([O-])c1ccc2c(c1)S(=O)(=O)C=C2` [Stattic] (50000 nM) has a normalised response of 0.17%.
Work on `CC(C)n1cnc2c(NCCc3ccc(O)cc3)nc(-c3csc4ccccc34)nc21` [StemRegenin 1] (10000 nM) yielded a normalised response of 107%.

The molecules below were run on MFM-223 in the same assay as above. Settings: incubation time: 72 h.
Experimental: as §1
`CC1(COc2ccc3c(c2)ncn3-c2ccc3cccc(N4CCC(N)CC4)c3n2)COC1` [Crenolanib] (10000 nM) gave a normalised response of 61.4%.
`CC[C@H](CO)Nc1nc(NCc2ccccc2)c2ncn(C(C)C)c2n1` [Seliciclib] (10000 nM) gave a normalised response of 89%.
`O=[N+]([O-])c1ccc2c(c1)S(=O)(=O)C=C2` [Stattic] (50000 nM) gave a normalised response of 0.11%.
`CC(C)n1cnc2c(NCCc3ccc(O)cc3)nc(-c3csc4ccccc34)nc21` [StemRegenin 1] (10000 nM) showed a normalised response of 59.2%.

Each molecule was assayed on HCC1937 in the same assay as above. Settings: incubation time: 72 h.
Experimental: as §1
Molecule `CC1(COc2ccc3c(c2)ncn3-c2ccc3cccc(N4CCC(N)CC4)c3n2)COC1` [Crenolanib] (10000 nM) has a normalised response of 52.4%.
`CC[C@H](CO)Nc1nc(NCc2ccccc2)c2ncn(C(C)C)c2n1` [Seliciclib] (10000 nM) gave a normalised response of 92.4%.
Work on `O=[N+]([O-])c1ccc2c(c1)S(=O)(=O)C=C2` [Stattic] (50000 nM) yielded a normalised response of 0.16%.
With `CC(C)n1cnc2c(NCCc3ccc(O)cc3)nc(-c3csc4ccccc34)nc21` [StemRegenin 1] (10000 nM) the normalised response was 58.9%.

Each molecule was assayed on HCC1599 in the same assay as above. Settings: incubation time: 72 h.
Experimental: as §1
In the case of `CC1(COc2ccc3c(c2)ncn3-c2ccc3cccc(N4CCC(N)CC4)c3n2)COC1` [Crenolanib] (10000 nM), the normalised response is reported as 60.6%.
`CC[C@H](CO)Nc1nc(NCc2ccccc2)c2ncn(C(C)C)c2n1` [Seliciclib] (10000 nM) was tested, and the normalised response was 95.9%.
`O=[N+]([O-])c1ccc2c(c1)S(=O)(=O)C=C2` [Stattic] (50000 nM) was tested, and the normalised response was 0.17%.
`CC(C)n1cnc2c(NCCc3ccc(O)cc3)nc(-c3csc4ccccc34)nc21` [StemRegenin 1] (10000 nM) was tested, and the normalised response was 61.6%.

What follows are molecules tested on MDA-MB-453 in the same assay as above. Settings: incubation time: 72 h.
Experimental: as §1
Work on `CC1(COc2ccc3c(c2)ncn3-c2ccc3cccc(N4CCC(N)CC4)c3n2)COC1` [Crenolanib] (10000 nM) yielded a normalised response of 15.6%.
Molecule `CC[C@H](CO)Nc1nc(NCc2ccccc2)c2ncn(C(C)C)c2n1` [Seliciclib] (10000 nM) has a normalised response of 132%.
`O=[N+]([O-])c1ccc2c(c1)S(=O)(=O)C=C2` [Stattic] (50000 nM) was tested, and the normalised response was 0.25%.
`CC(C)n1cnc2c(NCCc3ccc(O)cc3)nc(-c3csc4ccccc34)nc21` [StemRegenin 1] (10000 nM) gave a normalised response of 76.1%.

Each molecule was assayed on MCF-10A in the same assay as above. Settings: incubation time: 72 h.
Experimental: as §1
Molecule `CC1(COc2ccc3c(c2)ncn3-c2ccc3cccc(N4CCC(N)CC4)c3n2)COC1` [Crenolanib] (10000 nM) has a normalised response of 10.4%.
For `CC[C@H](CO)Nc1nc(NCc2ccccc2)c2ncn(C(C)C)c2n1` [Seliciclib] (10000 nM), the normalised response was 95.9%.
Molecule `O=[N+]([O-])c1ccc2c(c1)S(=O)(=O)C=C2` [Stattic] (50000 nM) has a normalised response of 0.13%.
For `CC(C)n1cnc2c(NCCc3ccc(O)cc3)nc(-c3csc4ccccc34)nc21` [StemRegenin 1] (10000 nM), the normalised response was 97.7%.

The molecules below were run on MDA-MB-468 in the same assay as above. Settings: incubation time: 72 h.
Experimental: as §1
Work on `CC1(COc2ccc3c(c2)ncn3-c2ccc3cccc(N4CCC(N)CC4)c3n2)COC1` [Crenolanib] (10000 nM) yielded a normalised response of 12.9%.
`CC[C@H](CO)Nc1nc(NCc2ccccc2)c2ncn(C(C)C)c2n1` [Seliciclib] (10000 nM) gave a normalised response of 87.1%.
`O=[N+]([O-])c1ccc2c(c1)S(=O)(=O)C=C2` [Stattic] (50000 nM) showed a normalised response of 0.18%.
For `CC(C)n1cnc2c(NCCc3ccc(O)cc3)nc(-c3csc4ccccc34)nc21` [StemRegenin 1] (10000 nM), the normalised response was 47.5%.

These molecules were tested on CAL-120 in the same assay as above. Settings: incubation time: 72 h.
Experimental: as §1
Work on `CC1(COc2ccc3c(c2)ncn3-c2ccc3cccc(N4CCC(N)CC4)c3n2)COC1` [Crenolanib] (10000 nM) yielded a normalised response of 52.4%.
Molecule `CC[C@H](CO)Nc1nc(NCc2ccccc2)c2ncn(C(C)C)c2n1` [Seliciclib] (10000 nM) has a normalised response of 92%.
`O=[N+]([O-])c1ccc2c(c1)S(=O)(=O)C=C2` [Stattic] (50000 nM) gave a normalised response of -0.12%.
`CC(C)n1cnc2c(NCCc3ccc(O)cc3)nc(-c3csc4ccccc34)nc21` [StemRegenin 1] (10000 nM) gave a normalised response of 89.2%.

The molecules below were run on HDQ-P1 in the same assay as above. Settings: incubation time: 72 h.
Experimental: as §1
`CC1(COc2ccc3c(c2)ncn3-c2ccc3cccc(N4CCC(N)CC4)c3n2)COC1` [Crenolanib] (10000 nM) was tested, and the normalised response was 13.9%.
For `CC[C@H](CO)Nc1nc(NCc2ccccc2)c2ncn(C(C)C)c2n1` [Seliciclib] (10000 nM), the normalised response was 84.4%.
`O=[N+]([O-])c1ccc2c(c1)S(=O)(=O)C=C2` [Stattic] (50000 nM) showed a normalised response of 0.11%.
Work on `CC(C)n1cnc2c(NCCc3ccc(O)cc3)nc(-c3csc4ccccc34)nc21` [StemRegenin 1] (10000 nM) yielded a normalised response of 76.9%.

What follows are molecules tested on Hs578T in the same assay as above. Settings: incubation time: 72 h.
Experimental: as §1
`CC1(COc2ccc3c(c2)ncn3-c2ccc3cccc(N4CCC(N)CC4)c3n2)COC1` [Crenolanib] (10000 nM) showed a normalised response of 27.5%.
`CC[C@H](CO)Nc1nc(NCc2ccccc2)c2ncn(C(C)C)c2n1` [Seliciclib] (10000 nM) showed a normalised response of 96.4%.
Work on `O=[N+]([O-])c1ccc2c(c1)S(=O)(=O)C=C2` [Stattic] (50000 nM) yielded a normalised response of 0.3%.
For `CC(C)n1cnc2c(NCCc3ccc(O)cc3)nc(-c3csc4ccccc34)nc21` [StemRegenin 1] (10000 nM), the normalised response was 76.3%.

What follows are molecules tested on CAL-148 (assay: normalised viability (% of control), CellTiter-Blue; higher = more viable cells (about 100 = DMSO control)). Settings: incubation time: 72 h.
Experimental: (§2)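 DSRT, CellTiter-Blue viability, 72 h incubation. Signal is normalised to DMSO and benzethonium chloride controls. Value is the normalised response at dose 6.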
For `O=C(CCCCCCC(=O)Nc1ccccc1)NO` [Vorinostat] (300 nM), the normalised viability was 85.6% and 94.9%.

What follows are molecules tested on DU-4475 in the same assay as above. Settings: incubation time: 72 h.
Experimental: as §2
For `O=C(CCCCCCC(=O)Nc1ccccc1)NO` [Vorinostat] (300 nM), the normalised viability was 97.4% and 88.9%.

Each molecule was assayed on CAL-85-1 in the same assay as above. Settings: incubation time: 72 h.
Experimental: as §2
`O=C(CCCCCCC(=O)Nc1ccccc1)NO` [Vorinostat] (300 nM) was tested, and the normalised viability was 95.3% and 104%.

These molecules were tested on CAL-51 in the same assay as above. Settings: incubation time: 72 h.
Experimental: as §2
With `O=C(CCCCCCC(=O)Nc1ccccc1)NO` [Vorinostat] (300 nM) the normalised viability was 116% and 104%.

Each molecule was assayed on MDA-MB-453 in the same assay as above. Settings: incubation time: 72 h.
Experimental: as §2
For `O=C(CCCCCCC(=O)Nc1ccccc1)NO` [Vorinostat] (300 nM), the normalised viability was 82.8% and 81.7%.
